≈ marks a conversion by molar mass, not a printed value. Read-outs that look alike come from different tables or passages of the source.
Key:
[1] = tested on: Vibrio harvevi; conditions: cited from earlier work
[2] = tested on: Staphylococcus aureus; conditions: cited from earlier work
[3] = tested on: Enterococcus faecalis; conditions: cited from earlier work
[4] = tested on: hemozoin; conditions: trophozoite stage; cited from earlier work
[5] = tested on: P. falciparum 3D7 strain; conditions: cited from earlier work
[6] = tested on: hemozoin (β-hematin); assay: Inhibition of polymerization of hemozoin (β-hematin) in vitro; conditions: 12 and 16 at 48.0, 24.0, 12.0 μM; 31 at 96.0, 48.0, 24.0 μM; 24 h
[7] = tested on: Plasmodium falciparum 3D7 strain; assay: In vitro susceptibility assay of P. falciparum, SYBR Green I; type: cell-based; conditions: for antimalarial activity (in words): P. falciparum 3D7; for IC50: Plasmodium falciparum
Method: The principle of the in vitro susceptibility test to malaria is to assess the degree of development of parasites P. falciparum in the presence of different concentrations of the compounds.
In the present disclosure, the antimalarial activity was also evaluated. Each compound was lyophilized and solubilized in DMSO (Sigma-Aldrich) to obtain a final concentration of 5 mM. Some intermediate dilutions were made to achieve the final concentration of 10 μM in the first well of the plate.
In an embodiment, the culture of P. falciparum was carried out as follows. […] Parasites were cultivated at 5% hematocrit, 37° C. and atmosphere with 5% of CO2, human serum was replaced with 0.5% AlbuMAXII (Invitrogen™) in the culture medium. Synchronized cultures were obtained by treatments with a 5% (m/v) solution of D-sorbitol (Sigma-Aldrich).
In the present disclosure, the in vitro susceptibility assay of P. falciparum using SYBR Green I was carried out as follows. […] Briefly, early ring stage parasites (>80% of rings, 3% haematocrit and 1% parasitaemia) were tested in duplicate in a 96-well plate and incubated with the compounds for 48 h (37° C., 5% CO2), parasite growth was assessed with SYBR Green I (Thermo Fisher Scientific). Each compound was tested in concentrations ranging from 10 to 0.001 μM. Fluorescence intensity was measured with a microplate reader with excitation and emission wavelengths of 485 and 535 nm, respectively, and analysed by nonlinear regression using GraphPad Prism 5 demo version to determine

[8] = tested on: healthy/non-parasitized erythrocytes; assay: Hemotoxicity in vitro (hemolysis assay); type: cell-based, human; conditions: at ≤10 μM
Method: In an embodiment, the evaluation of hemotoxicity in vitro was performed as follows. The in vitro hemolysis assay evaluates the release of hemoglobin in the medium (as an indicator of lysis of erythrocytes) after exposure to the test compounds.
In the present disclosure, the evaluation of hemotoxicity in vitro was performed as follows. In a 96-flat bottom plate 3% HTC, 20 μL of 20% Triton X-100, and 20 μL of PBS or RPMIc in 2% DMSO was added. Compounds were tested in a 1:4 serial dilution in concentrations ranging from 10 μM to 0.04 μM. After the incubation of 60 minutes, the plate was centrifuged at 2000 rpm for 5 minutes. 100 mL of Supernatant was transferred to a flat bottom plate. The absorbance reading was made at 450 nm in a Mode (Triad, Dynex Technologies). Two independent tests were carried out in triplicate. The results are presented in the form of a percentage of hemolysis-% hemolysis, obtained by the following formula; % Hemolysis=ABS (sample)/abs (C+)×100. Whereas C+ is a Triton x-100 to 20% solution RPMIc.

[9] = tested on: V79 cells; conditions: for DL50: 24 h; for SI (Selectivity Index): calculated by LD50/IC50 (V79 / P. falciparum 3D7)
Method: In the present disclosure, the cytotoxicity in vitro against mammalian cell was carried out as follows. Cytotoxicity was assessed on the mammalian cell line V79 (Chinese hamster lung), using an MTT based assay, as previously described [38B]. Tests were conducted in triplicate for each compound, at a range of concentrations (800 μM to 0.0512 μM), and with culture media containing 0.5% DMSO (no drug control); incubation time 24 h. Absorbance was read at 570 nm on a multi-mode microplate reader to produce a log dose-dependence curve. The LD50 value for each compound was estimated by non-linear interpolation of the dose-dependence curve (GraphPad Software).

[10] = tested on: E. faecalis ATCC 29212; assay: MIC/MBC broth dilution (CLSI), E. faecalis reference strain; type: cell-based, Enterococcus faecalis; conditions: Enterococcus faecalis
From the text: (§1) In the present disclosure, two Gram-positive—Staphylococcus aureus ATCC 29213 and Enterococcus faecalis ATCC […] and two Gram-negative—Escherichia coli ATCC 25922 and Pseudomonas aeruginosa ATCC 27853—reference bacterial strains were used. When it was possible to determine a minimal inhibitory concentration (MIC) value for these strains, clinically relevant strains were also used. These included methicillin-resistant S. uareus (MRSA) 66/1, isolated from public buses, as well as a isolate sensitive to the most commonly used antibiotic families (S. aureus 40/61/24) and two vancomycin-resistant Enterococcus (VRE) strains isolated from river water, E. faecalis B3/101 and E. faecalis A5/102, which is sensitive to ampicillin. Frozen stocks of all strains were grown on Mueller-Hinton agar (MH-BioKar Diagnostics, Allone, France) at 37° C. for 24 h. All bacterial strains were sub-cultured on MH agar and incubated overnight at 37° C. before each assay, in order to obtain fresh cultures.
(§2) An initial screening of the antibacterial activity of the compounds was performed by the Kirby-Bauer disk diffusion method, as recommended by the Clinical and Laboratory Standards institute (CLSI). Briefly, sterile 6 mm blank paper disks (Oxoid, Basingstoke, England) impregnated with 15 μg of each compound were placed on inoculated MH agar plates. A blank disk with DMSO was used as a negative control. MH inoculated plates were incubated for 18-20 hours at 37° C. At the end of the incubation, the inhibition halos where measured. The minimal inhibitory concentration (MIC) was used to determine the antibacterial activity of each compound, in accordance with the recommendations of the CLSI. Two-fold serial dilutions of the compounds were prepared in Mueller-Hinton Broth 2 (MHB2-Sigma-Aldrich, St. Louis, Mo., USA) within the concentration range of 0.062-64 μg/mL. Cefotaxime (CTX) ranging between 0.031-16 μg/mL was used as a control. Sterility and growth controls were included in each assay. Purity check and colony counts of the inoculum suspensions were also performed in order to ensure that the final inoculum density closely approximates the intended number ([…]). The MIC was determined as the lowest concentration at which no visible growth was observed. The minimal bactericidal concentration (MBC) was assessed by spreading 10 μL of culture collected from wells showing no visible growth on MH agar plates. The MBC was determined as the lowest concentration at which no colonies grew after 16-18 hours incubation at 37° C. These assays were performed in duplicate.

[11] = tested on: Staphylococcus aureus ATCC 29213; assay: MIC/MBC broth dilution (CLSI), S. aureus reference strain; type: cell-based; conditions: S. aureus ATCC 29213
From the text: as §1, §2

[12] = tested on: S. aureus 40/61/24; assay: MIC/MBC broth dilution (CLSI), sensitive clinical isolate; type: cell-based; conditions: Staphylococcus aureus
From the text: as §1, §2

[13] = tested on: S. aureus 66/1 (MRSA); assay: MIC/MBC broth dilution (CLSI), MRSA; type: cell-based; conditions: Staphylococcus aureus
From the text: as §1, §2

[14] = P. falciparum (3D7), 48 h, read-out: IC50

**Q.** For glyantypine [glyantypine (1)], which MIC [1] is on record?
**A.** 32 µg/mL

**Q.** With CC(C)[C@@H]1NC(=O)[C@@H](C[C@]2(O)c3ccccc3N3C(=O)[C@@H](C)N[C@H]32)n2c1nc1ccccc1c2=O [neofiscalin A (2), neofiscalin A] as the compound, how does the MIC [2] read?
**A.** 8 µg/mL (≈ 16.9 µM)

**Q.** And the MIC [3]?
**A.** 8 µg/mL (≈ 16.9 µM)

**Q.** With O=C(C[C@H]1NCCC[C@@H]1O)Cn1cnc2ccccc2c1=O [Febrifugine (9, FF), febrifugine] as the compound, how does the “inhibition of the formation of hemozoin (in words)” value [4] read?
**A.** significantly inhibits

**Q.** Which EC50 [5] does the source give for Clc1ccc2nccc(N3CCC(CN4CCC(c5c[nH]c6ccccc56)CC4)CC3)c2c1 [TCMDC-134281 (8), TCMDC-134281] here?
**A.** 34 nM

**Q.** For CC(C)C[C@@H]1NC(=O)[C@@H](Cc2c[nH]c3ccccc23)n2c1nc1ccccc1c2=O [Compound 16], which “inhibition of the polymerization of β-hematin in vitro (in words)” value [6] is on record?
**A.** did not show to inhibit

**Q.** What about the “antimalarial activity (in words)” value [7] of the same compound?
**A.** highest antimalarial activity

**Q.** What about the IC50 [7, 14] of the same compound?
**A.** 50 ± 20 nM

**Q.** What about the “hemolytic activity (in words)” value [8] of the same compound?
**A.** no hemolytic activity

**Q.** What about the DL50 ([9]; Chinese hamster) of the same compound?
**A.** 1.78 ± 0.47 µM

**Q.** And the “SI (Selectivity Index)” value [9]?
**A.** 34

**Q.** Which results are given for CC(C)[C@@H]1NC(=O)[C@@H](Cc2c[nH]c3ccccc23)n2c1nc1ccccc1c2=O [Compound 12, fiscalin B]?
**A.** inhibition of the polymerization of β-hematin in vitro (in words) [6]: did not show to inhibit; antimalarial activity (in words) [7]: highest antimalarial activity; IC50 [7, 14]: 100 ± 20 nM; hemolytic activity (in words) [8]: no hemolytic activity; DL50 ([9]; Chinese hamster): 1.91 ± 0.44 µM; SI (Selectivity Index) [9]: 19

**Q.** For CC(C)C[C@@H]1NC(=O)[C@@H](Cc2c[nH]c3ccccc23)n2c1nc1c(Cl)cc(Cl)cc1c2=O [Compound 31, (1S, 4R)-4-((1H-indol-3-yl)methyl)-8,10-dichloro-1-isobutyl-1,2-dihydro-6H-pyrazino[2,1-b]quinazoline-3,6(4H)-dione], which MBC ([10]; ATCC29212) is on record?
**A.** > 64 µg/mL

**Q.** And the MIC ([10]; ATCC29212, read-out: MIC)?
**A.** > 64 µg/mL

**Q.** And the “antibacterial (inhibitory) effect (in words)” value [11]?
**A.** inhibitory effect

**Q.** And the MBC ([11]; Staphylococcus aureus, ATCC29213)?
**A.** > 64 µg/mL

**Q.** What about the MIC ([11]; Staphylococcus aureus, ATCC29213, read-out: MIC) of the same compound?
**A.** 4 µg/mL (≈ 8.52 µM)

**Q.** What about the “inhibition of the polymerization of β-hematin in vitro (in words)” value [6] of the same compound?
**A.** did not show to inhibit

**Q.** And the “antimalarial activity (in words)” value [7]?
**A.** highest antimalarial activity

**Q.** What about the IC50 ([7]; 3D7, 48 h) of the same compound?
**A.** 200 nM

**Q.** What about the “hemolytic activity (in words)” value [8] of the same compound?
**A.** no hemolytic activity

**Q.** And the MIC ([12]; 40/61/24)?
**A.** 8 µg/mL (≈ 17 µM)

**Q.** What about the MBC ([12]; S. aureus 40/61/24) of the same compound?
**A.** > 64 µg/mL

**Q.** What about the DL50 ([9]; Mammalian cells (V79), MTT) of the same compound?
**A.** 14.00 ± 1.41 µM

**Q.** And the MBC [13]?
**A.** > 64 µg/mL

**Q.** And the MIC [13]?
**A.** 8 µg/mL (≈ 17 µM)

Reference: patent publication US20220274987A1, “PYRAZINO [1,2-B]QUINAZOLINE-3,6-DIONES DERIVATIVES, THEIR PRODUCTION AND USES THEREOF” (CIIMAR -CENTRO INTERDISCIPLINAR DE INVESTIGAÇÃO MARINHA E …, priority 2019, published 2022)
